Laboratory results reported in patent EP2491043B1, “2,7-SUBSTITUTED THIENO[3,2-D]PYRIMIDINE COMPOUNDS AS PROTEIN KINASE INHIBITORS” (Korea Institute of Science and Technology, priority 2009, dated 2011).

Experiments:
[1] = target: T1, FAK (Homo sapiens, UniProt Q05397); assay: Measurement of FAK kinase activity (ULight-LANCE assay); format: biochemical; conditions: 10 µM ATP, 3 nM FAK, TR-FRET; read-out: FAK inhibition activity (IC50)
T1 construct: purchased Cell Signaling 7796
Procedure: Full sequence FAK was purchased from Cell Signaling (Catalog No.: 7796). ULight-poly GT (PerkinElmer #TRF0100-D), Eu-anti-phospho-Tyr (PT66) ((PerkinElmer #AD0068) and Lance detection buffer (PerkinElmer #CR-97-100) were purchased from PerkinElmer. The kinase solution (50 mM Tris-HCl pH 7.5, 10 mM MgCl2, 1 mM EGTA, 2 mM DTT, 0.01% Tween-20) was adjusted to a final concentration of 3 nM by adding FAK diluted to 6 nM (2X) in white 384 OptiPlate, and added with an amount of 5 µL. 4X ULight-poly GT was adjusted to a final concentration of 100 nM. ATP (Sigma #A2383) was adjusted to a final concentration of 10 µM and in 2.5 µL aliquots. The test compound was sequentially diluted at 12 concentrations and treated with an amount of 0.5 µL. After shaking well and allowing to react at room temperature for 60 minutes, 5 µL of ethylenediaminetetraacetic acid (EDTA, final concentration 40 mM) diluted in Lance detection buffer (Lance detection buffer) was added and the mixture was left at room temperature for 5 minutes to stop the reaction. After adding 4X Eu-anti-phospho-Tyr (PT66) phosphorylated antibody diluted to a final concentration of 2 nM in detection buffer with an amount of 5 µL, and reaction was performed at room temperature for 60 minutes. After adjusting to detect time-resolved fluorescence energy transfer (TR-FRET) at excitation wavelength 320 nm and emission wavelength 665 nm, signals were detected using EnVision Multilabel Reader.

[2] = test system: HT-29 human colon adenocarcinoma cells; assay: Inhibition of proliferation of HT-29 cells (MTT assay); format: cell-based; conditions: read-out: Inhibition activity against proliferation of HT-29 cells (GI50)
Procedure: HT-29 human colon adenocarcinoma cells were cultured in DMEM [10% FBS, 1% penicillin/streptomycin] at 37 °C in the presence of 5% CO2. The cultured HT-29 cells were harvested with 0.05% trypsin-0.02% EDTA and seeded in a 96-well plate at 5 x 10^3 cells per well.
3-(4,5-Dimethylthiazol-2-yl)-2,5-diphenyltetrazolium bromide (MTT) assay (CellTiter 96 Assay, Promega) was employed to measure cell viability. After adding 15 µL of a dye per well and culturing for 2 hours, the cells were treated with 100 µL of a stop solution and absorbance was measured 24 hours later. The test compound was treated a day after plating. The test compound had been sequentially diluted at 12 concentrations from a 10 mM stock solution using sterilized dimethylsulfoxide (DMSO) and treated with an amount of 0.5 µL. Absorbance at 590 nm was recorded using En Vision 2103, and GI50 value was calculated using GraphPad Prism 4.0 software.

[3] = test system: prostate cancer PC-3, breast cancer BT-474, colon LoVo, lung cancer NCI-H460, glioblastoma U-87 MG and pancreatic cancer BxPC-3 cells; conditions: 25-100 mg/kg p.o., human tumor xenografts; cited from earlier work
[4] = test system: tumor; conditions: concurrent administration of TAE226 and docetaxel, animal model, P values < 0.01; cited from earlier work

T1 sequence (Q05397 whole entry): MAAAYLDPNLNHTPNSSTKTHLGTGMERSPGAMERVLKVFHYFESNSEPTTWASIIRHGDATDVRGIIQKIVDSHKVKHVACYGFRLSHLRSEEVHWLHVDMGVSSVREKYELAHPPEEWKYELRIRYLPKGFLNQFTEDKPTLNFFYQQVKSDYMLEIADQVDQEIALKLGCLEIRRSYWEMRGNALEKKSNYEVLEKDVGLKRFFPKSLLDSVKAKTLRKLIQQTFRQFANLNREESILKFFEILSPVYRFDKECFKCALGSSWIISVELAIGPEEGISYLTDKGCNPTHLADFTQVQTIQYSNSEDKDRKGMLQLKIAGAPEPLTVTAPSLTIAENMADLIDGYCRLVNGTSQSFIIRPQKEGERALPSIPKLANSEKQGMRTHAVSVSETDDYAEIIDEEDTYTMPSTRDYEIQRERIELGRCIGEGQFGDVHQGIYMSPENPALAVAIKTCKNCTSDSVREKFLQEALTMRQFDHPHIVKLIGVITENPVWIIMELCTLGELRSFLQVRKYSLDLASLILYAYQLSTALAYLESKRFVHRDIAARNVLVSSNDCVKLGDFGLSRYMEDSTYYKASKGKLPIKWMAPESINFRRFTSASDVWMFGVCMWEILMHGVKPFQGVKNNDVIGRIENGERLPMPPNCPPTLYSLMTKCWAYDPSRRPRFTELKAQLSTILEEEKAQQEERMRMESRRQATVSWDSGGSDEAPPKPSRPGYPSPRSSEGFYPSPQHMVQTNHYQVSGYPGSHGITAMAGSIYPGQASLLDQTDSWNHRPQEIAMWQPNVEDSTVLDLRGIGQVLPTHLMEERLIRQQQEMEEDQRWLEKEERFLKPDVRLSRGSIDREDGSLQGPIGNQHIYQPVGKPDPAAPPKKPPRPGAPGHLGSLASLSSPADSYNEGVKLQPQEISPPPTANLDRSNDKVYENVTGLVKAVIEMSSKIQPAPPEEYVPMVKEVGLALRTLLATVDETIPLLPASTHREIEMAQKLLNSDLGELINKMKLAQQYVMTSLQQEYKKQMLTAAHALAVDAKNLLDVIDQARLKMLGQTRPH

| SMILES | IC50 [1] [nM] | GI50 [2] [nM] | inhibition of tumor growth or tumor degeneration [3] | tumor reduction [4] |
| --- | --- | --- | --- | --- |
| Cc1ccc(Nc2ncc3scc(-c4cccc(NS(C)(=O)=O)c4)c3n2)cn1 [Example 11, N-(3-(2-(6-methylpyridin-3-ylamino)thieno[3,2-d]pyrimidin-7-yl)phenyl)methanesulfonamide] | < 1000 | < 1000 | – | – |
| CS(=O)(=O)Nc1cccc(-c2csc3cnc(Nc4ccc(N5CCOCC5)nc4)nc23)c1 [Example 12, N-(3-(2-(6-morpholinopyridin-3-ylamino)thieno[3,2-d]pyrimidin-7-yl)phenyl)methanesulfonamide] | < 1000 | < 1000 | – | – |
| Cc1ccc(Nc2ncc3scc(-c4cccc(C(=O)NC5CC5)c4)c3n2)cn1 [Example 26, N-cyclopropyl-3-(2-(6-methylpyridin-3-ylamino)thieno[3,2-d]pyrimidin-7-yl)benzamide] | < 10000 | – | – | – |
| CCN1CCN(c2ccc(Nc3ncc4scc(-c5cnc6ccccc6c5)c4n3)cn2)CC1 [Example 30, N-(6-(4-ethylpiperazin-1-yl)pyridin-3-yl)-7-(quinolin-3-yl)thieno[3,2-d]pyrimidin-2-amine] | < 500 | < 1000 | – | – |
| CN(c1ncccc1CNc1nc(Nc2ccc3c(c2)CC(=O)N3)ncc1C(F)(F)F)S(C)(=O)=O [PF-562271] | – | – | 42-90% | – |
| CNC(=O)c1ccccc1Nc1nc(Nc2ccc(N3CCOCC3)cc2OC)ncc1Cl [TAE226] | – | – | – | 85-97% |

Second part, led by results:

| IC50 [1] [nM] | GI50 [2] [nM] | SMILES | inhibition of tumor growth or tumor degeneration [3] | tumor reduction [4] |
| --- | --- | --- | --- | --- |
| < 500 | < 1000 | CCN1CCN(c2ccc(Nc3ncc4scc(-c5cccc(NS(C)(=O)=O)c5)c4n3)cn2)CC1 [Example 1, N-(3-(2-(6-(4-ethylpiperazin-1-yl)pyridin-3-ylamino)thieno[3,2-d]pyrimidin-7-yl)phenyl)methanesulfonamide] | – | – |
| < 500 | < 1000 | CN(C)CCOc1ccc(Nc2ncc3scc(-c4cccc(NS(C)(=O)=O)c4)c3n2)cn1 [Example 13, N-(3-(2-(6-(2-(dimethylamino)ethoxy)pyridin-3-ylamino)thieno[3,2-d]pyrimidin-7-yl)phenyl)methanesulfonamide] | – | – |
| < 500 | < 1000 | CCN1CCN(c2ccc(Nc3ncc4scc(-c5cccc(C(=O)NC6CC6)c5)c4n3)cn2)CC1 [Example 25, N-cyclopropyl-3-(2-(6-(4-ethylpiperazin-1-yl)pyridin-3-ylamino)thieno[3,2-d]pyrimidin-7-yl)benzamide] | – | – |
| < 500 | < 1000 | O=C(NC1CC1)c1cccc(-c2csc3cnc(Nc4ccc(N5CCOCC5)nc4)nc23)c1 [Example 27, N-cyclopropyl-3-(2-(6-morpholinopyridin-3-ylamino)thieno[3,2-d]pyrimidin-7-yl)benzamide] | – | – |
